Here are results for three compounds from PMC10179701, “Towards Protection of Nucleic Acids from Herbicide Attack: Self-Assembly of Betaines Based on Pillar[5]arene with Glyphosate and DNA” (International Journal of Molecular Sciences, 2023).

Each structure is given as a SMILES string. Marks after values point to notes of the source that are not given here.

Data set [1] addresses DNA from salmon sperm. As to the kind of experiment: UV-Vis spectrophotometric titration, association with DNA from salmon sperm. Format: binding. Conditions: 1:1 complex, Tris-HCl buffer pH 7.44, CDNA 2.5 × 10^–7 M, BindFit. On the procedure: The interaction of GIS with a series of synthesized pillar[5]arenes 1–4 and DNA was studied by UV-Vis spectroscopy. UV-Vis spectroscopy is a universal method to study the complex properties of synthetic receptors. The interaction of GIS with DNA from salmon sperm was initially studied (Figure 5). DNA from salmon sperm was chosen as a model substrate due to its relatively low molecular weight and small size. The experiments were carried out in a Tris-HCl buffer system (pH = 7.44).
The association constants were determined by spectrophotometric titration to quantify the interaction of DNA with GIS. The UV-Vis spectra of the DNA–GIS system were recorded in such a way that the DNA concentration remained constant (2.5 × 10^–7 M), and the herbicide concentration ratio increased from 1:0.3 to 1:10 (Figure 5b). The obtained experimental data were processed by the BindFit program. The association constant of a 1:1 complex was calculated (Figure S23). The logarithm of the association constant of DNA with GIS was determined as lgKa = 4.92. […] However, in this case, the association constant of the complexes was determined with a large error.
Further, the interaction of macrocycles 1–4 with the DNA from salmon sperm in Tris-HCl was studied by UV-Vis spectroscopy. […] The association constant of compound 4-DNA complex was determined by spectrophotometric titration. […] The logarithm of the association constant of pillar[5]arene 4 with the DNA was determined as lgKa (4–DNA) = 5.24.
The association constant of compound 1-DNA complex was also determined by spectrophotometric titration (Figure S25b). The logarithm of the association constant of pillar[5]arene 1 with DNA was determined as lgKa(1–DNA) = 4.88 (Figure S27). […]
buffer solution. The UV spectra of the solutions were then recorded. The stability constant of complex was calculated by Bindfit. […]
volume of 3 mL with Tris‐HCl buffer solution. The UV spectra of the solutions were then recorded. The stability constant of each complex was calculated by Bindfit. […]
stability constant of complex was calculated by Bindfit. […]

The subject of data set [2] is A549 cells. The data set is described as follows: MTT test, A549 cells. Conditions: for IC50: A549, MTT, 24 h; for cytotoxic activity: A549, concentration range 2–100 μg/mL. On the procedure: (§1) The next stage of this work was the study of pillar[5]arenes 1–4 ability to inhibit the viability and proliferative activity of embryonic lung epithelial (LEC) and human lung adenocarcinoma (A549) cells using the MTT test.
(§2) Further, the ability of GIS to inhibit the viability and proliferative activity of LEC and A549 cells was studied by the MTT test. […] The average inhibitory concentration (IC50) was calculated for GIS (Table 3). […]
(§3) 1.6. Cytotoxicity of pillar[5]arenes 1–4, GIS and their mixtures on A549 and LEC Cell Lines […]
(§4) activity of LEC cells and A549 cells was investigated using the MTT test according to [2]. A549 – human alveolar adenocarcinoma cell line (ATCC, Rockville, Maryland, USA) and cow embryo lung epithelial (LEC) cells (Animal Cell Culture Collection of Russian Academy of Agricultural Science, Kazan, Russia) were cultured in DMEM (GIBCO, Waltham, MA, USA) medium supplemented with 10% serum and 100 units/mL of penicillin (PanEco, Moscow, Russia) and streptomycin (PanEco, Moscow, Russia) in a humidified atmosphere with 5% CO2 at 37 °C. Cells were seeded in 96‐well plates at a concentration of 10^4 cells/well. After 24 h of cultivation, the medium was removed from the wells and replaced with a fresh one with the addition of the test substances. The volume of the culture medium in the wells was 100
(§5) μL. After 24 h incubation of cells in the presence of substances, the medium in the wells was replaced with a fresh one containing MTT reagent at a final concentration of 0.5 mg/mL. The cells were incubated with MTT for 4 h at 37 °C in an atmosphere of 5% CO2. Then, the medium was aspirated from the wells and 100 μL of dimethyl sulfoxide was added. Probes were incubated at 37 °C for 15 min in the dark for the formazan crystals to dissolve. The optical density of the formazan solution in the wells was measured using a plate reader (BioRad xMarkTM Microplate Spectrophotometer, USA) at a wavelength of 570 nm.
(§6) Three series of experiments were carried out with at least 8 replications for each variant in the series. […]
(In general: Tetrazolium assays rely on reduction of a dye to a coloured formazan, in cell work by metabolically active cells.)

Data set [3] concerns LEC cells. As to the kind of experiment: MTT test, LEC cells. The note with it: for IC50: MTT, 24 h; for cytotoxic activity: concentration range 2–100 μg/mL. On the procedure: as §1, §2, §3, §4, §5, §6
Data set [4] is described as follows: Dynamic light scattering of macrocycle aggregates in water. Conditions: H2O, 298 K. It is filed as physicochemical. On the procedure:
The next stage of the work was the study of aggregation properties of both previously synthesized ester derivatives of amino acids 1 and 2, and macrocyclic betaine derivatives 3 and 4 by dynamic light scattering (DLS). The study was carried out in water in the 1 × 10^–6–1 × 10^–4 M concentration range (Figures S11–S22). The size of associates increases with decreasing macrocycle 1 concentration in solution (Table 1). A different pattern is observed for betaine derivative 3. Thus, the particles become coarser, and the polydispersity index (PDI) of the systems increased with an increase in compound 3 concentration, which is probably due to the formation of β-sheets by oligopeptide substituents. The presence of two oppositely charged fragments in one substituent leads to the fact that compound 3 becomes similar to surfactant molecules in terms of its aggregation properties.

Data set [5] deals with A549 cells. As to the kind of experiment: MTT assay, combined action of macrocycles with GIS on A549 cells. It is filed as cell-based, human. Conditions: A549, pillararene 1 × 10^–5 M with GIS 3.47 × 10^–2 M. On the procedure:
The ability to inhibit the viability and proliferative activity of A549 cells of macrocycles 1–4 in the presence of GIS was studied using the MTT assay. […] The developed approach opens up the possibility of creating pillar[5]arene-based herbicide antidotes. […]
fresh one with the addition of the test substances.
Then, the medium was aspirated from the wells
and 100 μL of dimethyl sulfoxide was added.
the formazan crystals to dissolve. […]
substances. […] After 24 h of incubation cells were […]

Regarding `CC(C)N.O=C(O)CNCP(=O)(O)O` [GIS, glyphosate isopropylamine salt, reference compound], in data set [1], the “lgKa, logarithm of the association constant with DNA” value worked out at 4.92. Moreover, in data set [2] (A549), the “concentration at which cytotoxic effect was recorded” value is ≥ 10000 µg/mL and the “concentration without ability to reduce viability” value was ≤ 5000 µg/mL. The IC50 in data set [2] is listed as 10,180 μg/mL. In data set [3], the “concentration at which cytotoxic effect was recorded” value was ≥ 10000 µg/mL, the “concentration without ability to reduce viability” value is ≤ 5000 µg/mL and the IC50 is listed as 11,430 μg/mL.

For `C[N+](C)(CCCNC(=O)COc1cc2c(OCC(=O)NCCC[N+](C)(C)CC(=O)NCC(=O)NCC(=O)[O-])cc1Cc1cc(OCC(=O)NCCC[N+](C)(C)CC(=O)NCC(=O)NCC(=O)[O-])c(cc1OCC(=O)NCCC[N+](C)(C)CC(=O)NCC(=O)NCC(=O)[O-])Cc1cc(OCC(=O)NCCC[N+](C)(C)CC(=O)NCC(=O)NCC(=O)[O-])c(cc1OCC(=O)NCCC[N+](C)(C)CC(=O)NCC(=O)NCC(=O)[O-])Cc1cc(OCC(=O)NCCC[N+](C)(C)CC(=O)NCC(=O)NCC(=O)[O-])c(cc1OCC(=O)NCCC[N+](C)(C)CC(=O)NCC(=O)NCC(=O)[O-])Cc1cc(OCC(=O)NCCC[N+](C)(C)CC(=O)NCC(=O)NCC(=O)[O-])c(cc1OCC(=O)NCCC[N+](C)(C)CC(=O)NCC(=O)NCC(=O)[O-])C2)CC(=O)NCC(=O)NCC(=O)[O-]` [Compound 3], the “polydispersity index (PDI)” value was found to be 0.55 in data set [4] (1 × 10^–4 M), 0.43 in data set [4] (1 × 10^–5 M) and 0.39 in data set [4] (1 × 10^–6 M). The “size of aggregates d” value in data set [4] (1 × 10^–4 M) stood at 565 ± 12 nm; in data set [4] (1 × 10^–5 M), 290 ± 38 nm; in data set [4] (1 × 10^–6 M) it was 276 ± 63 nm. Also, the IC50 in data set [2] and in data set [3] was >100 * μg/mL in each case. In addition, the cytotoxic activity result in data set [2] and in data set [3] was “did not show statistically significant cytotoxic activity” throughout. Also, in data set [5], the “change of toxicity on combined action with GIS” value is recorded as “No significant differences”.

For `CCOC(=O)CNC(=O)CNC(=O)C[N+](C)(C)CCCNC(=O)COc1cc2c(OCC(=O)NCCC[N+](C)(C)CC(=O)NCC(=O)NCC(=O)OCC)cc1Cc1cc(OCC(=O)NCCC[N+](C)(C)CC(=O)NCC(=O)NCC(=O)OCC)c(cc1OCC(=O)NCCC[N+](C)(C)CC(=O)NCC(=O)NCC(=O)OCC)Cc1cc(OCC(=O)NCCC[N+](C)(C)CC(=O)NCC(=O)NCC(=O)OCC)c(cc1OCC(=O)NCCC[N+](C)(C)CC(=O)NCC(=O)NCC(=O)OCC)Cc1cc(OCC(=O)NCCC[N+](C)(C)CC(=O)NCC(=O)NCC(=O)OCC)c(cc1OCC(=O)NCCC[N+](C)(C)CC(=O)NCC(=O)NCC(=O)OCC)Cc1cc(OCC(=O)NCCC[N+](C)(C)CC(=O)NCC(=O)NCC(=O)OCC)c(cc1OCC(=O)NCCC[N+](C)(C)CC(=O)NCC(=O)NCC(=O)OCC)C2.[Br-].[Br-].[Br-].[Br-].[Br-].[Br-].[Br-].[Br-].[Br-].[Br-]` [Compound 1], in data set [1], the “lgKa, logarithm of the association constant with DNA” value was 4.88. In addition, the “polydispersity index (PDI)” value was 0.37 in data set [4] (1 × 10^–4 M), 0.35 in data set [4] (1 × 10^–5 M) and 0.39 in data set [4] (1 × 10^–6 M). The “size of aggregates d” value was found to be 249 ± 17 nm in data set [4] (1 × 10^–4 M), 286 ± 57 nm in data set [4] (1 × 10^–5 M) and 441 ± 81 nm in data set [4] (1 × 10^–6 M). Further, the IC50 in data set [2] and in data set [3] was >100 * μg/mL in each case. The cytotoxic activity entry in data set [2] and in data set [3] was “did not show statistically significant cytotoxic activity” throughout. Moreover, the “change of toxicity on combined action with GIS” value in data set [5] is reported as “slight decrease in toxicity”.
